{"source": "patent US8440610B2", "about": "“Mapkap kinase-2 as a specific target for blocking proliferation of P53-defective cells” (Massachusetts Institute of Technology, priority 2004, dated 2013)", "key": {"p38 MAPK/MK2 pathway": {"tested_on": "p38 MAPK/MK2 pathway", "assay": "Immunoblot of p38 MAPK/MK2 activation after DNA-damaging drugs in U2OS cells", "type": "cell-based, human", "settings": "U2OS cells, 10 μM drug", "experimental": "14-3-3 pull-down assays, immunoblotting, and immunofluorescence. U2OS cells were lysed in lysis buffer: 50 mM Tris/HCl, pH7.8, 150 mM NaCl, 1.0% NP-40, 5 mM EDTA, 2 mM DTT, 8 μg/ml pepstatin, 8 μg/ml aprotinin, 8 μg/ml leupeptin, 2 mM Na3VO4, 10 mM NaF, 1 μM microcystin for twenty minutes at 4° C. Clarified lysates (0.5-2 mg protein) were incubated with 20 μL glutathione beads or amylose beads containing 10-20 μg 14-3-3-GST or 14-3-3-MBP, respectively, for 120 minutes at 4° C. Following washing, lysates and bead-bound proteins were analysed by SDS-PAGE, followed by transfer to PVDF membranes and immunoblotted with the indicated antibodies. For immunofluorescence experiments, U2OS cells were seeded onto 18 mm^2 coverslips, irradiated or mock-treated, fixed, extracted, and immunostained as described previously (Clapperton et al., Nat. Struct. Mol. Biol., 11:512-518, 2004)."}, "p53−/− MEFs": {"tested_on": "p53−/− MEFs", "assay": "FACS cell cycle analysis (PI, phospho-histone H3) in p53−/− MEFs", "type": "cell-based, mouse", "settings": "MK2 depleted p53−/− MEFs; 10 μM drug, nocodazole added three hours later, thirty hours", "experimental": "FACS analysis. UV irradiation was performed at 254 nm (UV-C) using a Stratalinker 2400 (Stratagene). U2OS cells were fixed in 70% ethanol overnight at −20° C., permeabilized with PBS containing 0.2% Triton X-100 for twenty minutes at 4° C., blocked with 2% FBS in PBS, and incubated with 1 μg of anti-phospho-histone H3 per 10^6 cells for sixty minutes on ice. Following washing, cells were incubated with FITC-conjugated goat anti-rabbit antibody (diluted 1:500) for thirty minutes on ice, washed, and resuspended in PBS containing 50 μg/ml PI for twenty minutes immediately prior to FACS analysis. Analysis was performed using a Becton Dickinson FACS machine with CellQuest software.\nTo investigate the molecular mechanisms involved in MK2 dependent responses to DNA lesions, we examined cell cycle profiles of control and MK2 depleted p53^−/− MEFs. Asynchronous MK2- or control knock-down p53^−/− MEFs were mock treated or exposed to doxorubicin for thirty hour, and cell cycle distribution monitored by FACS. In one set of experiments the spindle poison nocodazole was added to the media three hours after addition of doxorubicin, to cause any cells progressing through the cell cycle to arrest in mitosis. DNA content was monitored by PI staining; phospho-histone-H3 staining was used as an indicator of mitotic entry. […]"}, "[1]": {"tested_on": "H-Ras-V12 transformed p53−/− MEFs", "assay": "Tumor regression assay of established tumors in nude mice", "type": "in vivo", "settings": "MK2 depleted tumors; for tumor diameter at start of treatment: before treatment; for tumor diameter after fourteen days of treatment: cisplatin 2 mg/kg or doxorubicin 4 mg/kg intraperitoneal 3× per week", "experimental": "For tumor regression assays, H-Ras-V12 transformed p53^−/− MEFs were stably transfected with a lentiviral transfer vector encoding for shRNA targeting either MAPKAP kinase-2 or luciferase. 10^6 cells were injected into the flanks of nude mice as above, and tumors were allowed to form for twelve days. Mice were then treated with either cisplatin (2 mg/kg, intraperitoneal administration 3× per week) or doxorubicin (4 mg/kg, intraperitoneal administration 3× per week), monitored for a total of twenty-six days, and then sacrificed. Tumor diameter was measured periodically during growth and tumors were weighed at the endpoint. Experiments were performed in quadruplicate, and data plotted as sample means with error bars showing standard deviation.\nWe investigated whether the chemo-sensitizing effect of MK2 depletion in p53 null cells in culture could also be observed when pre-existing p53 deficient tumors were treated with DNA damaging drugs in vivo. In these experiments HRas-V12 transformed p53^−/− MEFs were stably transfected with control shRNA or MK2 shRNA expressed from a murine U6 promoter, using a lentiviral delivering system (FIG. 18A). The lentiviral transfer vector also encoded GFP under the control of a CMV promoter, allowing for fluorescent detection of tumors in situ. Tumors were induced by injection of 10^6 cells into the flanks of nude mice. Twelve days later ˜1 cm diameter tumors had formed at all injection sites, and treatment with cisplatin, doxorubicin, or vehicle was begun (FIG. 18B). In the absence of treatment with DNA damaging drugs, the tumors arising from the MK2 depleted cells in the right flanks of these animals grew slightly larger than those of the luciferase shRNA control cells in the left flanks (FIG. 18B-18D). […] Tumors depleted of MK2 shrank from 1.3 cm to 0.4 cm over fourteen days when treated with cisplatin, and from 1.4 to 0.5 cm when treated with doxorubicin. Thus, the sensitizing effect of MK2 depletion on DNA damage induced cell death in p53-deficient primary cells observed in cell culture was also maintained in vivo."}}, "data": [{"smiles": "COc1cccc2c1C(=O)c1c(O)c3c(c(O)c1C2=O)C[C@@](O)(C(=O)CO)C[C@@H]3O[C@H]1C[C@H](N)[C@H](O)[C@H](C)O1", "note": "[doxorubicin]", "values": [{"measurement": "time to MK2 activation (reduction in electrophoretic mobility, pThr-344)", "setting": "p38 MAPK/MK2 pathway", "value": "Within one hour"}, {"measurement": "cells staining positively for phospho-histone H3", "setting": "p53−/− MEFs", "value": 28.5, "unit": "%"}, {"measurement": "tumor diameter at start of treatment", "setting": "[1]", "value": 1.4, "unit": "cm"}, {"measurement": "tumor diameter after fourteen days of treatment", "setting": "[1]", "value": 0.5, "unit": "cm"}]}, {"smiles": "N.N.[Cl][Pt][Cl]", "note": "[cisplatin]", "values": [{"measurement": "time to MK2 activation (reduction in electrophoretic mobility, pThr-344)", "setting": "p38 MAPK/MK2 pathway", "value": "Within one hour"}, {"measurement": "cells staining positively for phospho-histone H3", "setting": "p53−/− MEFs", "value": "~25", "unit": "%"}, {"measurement": "tumor diameter at start of treatment", "setting": "[1]", "value": 1.3, "unit": "cm"}, {"measurement": "tumor diameter after fourteen days of treatment", "setting": "[1]", "value": 0.4, "unit": "cm"}]}]}
